Experimental data: BindingDB's records for PubMed 34735766 (Shandong University, 2021)

Assay: Inhibition of Influenza A virus H1N1 Neuraminidase

## CCC(CC)O[C@@H]1C=C(C(=O)O)C[C@H](NCc2ccc(Sc3ccccc3)cc2)[C@H]1NC(C)=O
  IC50: 5.6 nM
